This experiment addresses T1, AsPC-1 HiBiT-KRASG12D (Homo sapiens, UniProt P01116, G12D).
T1 construct: insert the HiBiT tag onto the N-terminus of one or more of the endogenous KRAS alleles; endogenous in cells; host or cells: AsPC-1 (ATCC CRL-1682), CRISPR-Cas9 knock-in clone, one tagged allele
Put plainly: HiBiT degradation assay (G12D), AsPC-1 HiBiT-KRASG12D cells. Type of experiment: cell-based. To be noted: 24 hours treatment; for Dmax: ASPC1, AsPC-1 HiBiT-KRASG12D cells, maximum degradation observed; for DC50: AsPC-1 HiBiT-KRASG12D cells, HiBiT luminescence. The procedure, abridged: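 AsPC-1 cells carried a CRISPR knock-in of an N-terminal HiBiT tag on endogenous KRAS G12D. After 24 h compound treatment at 37 °C (triplicate), viability was read by alamar blue (4 h, fluorescence, normalized to DMSO). HiBiT-KRAS levels were then measured by Nano-Glo HiBiT lytic luminescence after 45 min at room temperature.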
(In general: HiBiT is a short tag that completes a luciferase, so light tracks the accessible tagged protein.)

Usually Dmax stands for the greatest extent of degradation seen. Low values mean shallow degradation, high ones deep degradation. As usually defined, the DC50 is the midpoint of the concentration-degradation curve. A lower DC50 goes with a more potent degrader.

Molecules are shown by their SMILES.

T1 sequence (P01116 1-188 isoform P01116-2 G12D): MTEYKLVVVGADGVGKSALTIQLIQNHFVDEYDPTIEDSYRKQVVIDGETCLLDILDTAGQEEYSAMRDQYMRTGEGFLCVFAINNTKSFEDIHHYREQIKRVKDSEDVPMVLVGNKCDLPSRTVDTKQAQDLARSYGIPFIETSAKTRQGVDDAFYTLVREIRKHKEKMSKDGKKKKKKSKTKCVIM

Compound `CCc1cccc2cc(O)cc(-c3ncc4c(N5C[C@H]6CC[C@@H](C5)N6)nc(OCCN5CCC(C)(CN6CCN(c7cc([C@@H](C(=O)N8C[C@H](O)C[C@H]8C(=O)N[C@@H](C)c8ccc(-c9scnc9C)cc8)C(C)C)on7)CC6)CC5)nc4c3F)c12` [Compound 188, (2S,4R)-1-((S)-2-(3-(4-((1-(2-((4-((1R,5S)-3,8-diazabicyclo[3.2.1]octan-3-yl)-7-(8-ethyl-3-hydroxynaphthalen-1-yl)-8-fluoropyrido[4,3-d]pyrimidin-2-yl)oxy)ethyl)-4-methylpiperidin-4-yl)methyl)piperazin-1-yl)isoxazol-5-yl)-3-methylbutanoyl)-4-hydroxy-N—((S)-1-(4-(4-methylthiazol-5-yl)phenyl)ethyl)pyrrolidine-2-carboxamide] had a Dmax of 20 to 60% and a DC50 of 1 to 3 µM.

Consider `CCc1cccc2cc(O)cc(-c3ncc4c(N5CC6CCC(C5)N6)nc(OC[C@]56CCCN5[C@H](COC(=O)N5C[C@H](C)N(c7cc([C@@H](C(=O)N8C[C@H](O)C[C@H]8C(=O)N[C@@H](C)c8ccc(-c9scnc9C)cc8)C(C)C)on7)C[C@H]5C)CC6)nc4c3F)c12` [Compound 302, [(3S,8R)-8-[[4-(3,8-diazabicyclo[3.2.1]octan-3-yl)-7-(8-ethyl-3-hydroxy-1-naphthyl)-8-fluoro-pyrido[4,3-d]pyrimidin-2-yl]oxymethyl]-1,2,3,5,6,7-hexahydropyrrolizin-3-yl]methyl (2R,5S)-4-[5-[(1S)-1-[(2S,4R)-4-hydroxy-2-[[(1S)-1-[4-(4-methylthiazol-5-yl)phenyl]ethyl]carbamoyl]pyrrolidine-1-carbonyl]-2-methyl-propyl]isoxazol-3-yl]-2,5-dimethyl-piperazine-1-carboxylate], for which the maximal degradation (Dmax) fell in the range of 20 to 60% and the DC50 was 1 to 3 µM. The like results for `CCc1cccc2cc(O)cc(-c3ncc4c(N5CC6CCC(C5)N6)nc(OC[C@]56CCCN5[C@@H](COC(=O)N(C)Cc5cc([C@H](C(=O)N7C[C@H](O)C[C@H]7C(=O)N[C@@H](C)c7ccc(-c8scnc8C)cc7)C(C)C)on5)CC6)nc4c3F)c12` [Compound 92, [(3R,7aR)-7a-{[(4-{3,8-diazabicyclo[3.2.1]octan-3-yl}-7-(8-ethyl-3-hydroxynaphthalen-1-yl)-8-fluoropyrido[4,3-d]pyrimidin-2-yl)oxy]methyl}-hexahydro-1H-pyrrolizin-3-yl]methyl N-({5-[(2R)-1-[(2S,4R)-4-hydroxy-2-{[(1S)-1-[4-(4-methyl-1,3-thiazol-5-yl)phenyl]ethyl]carbamoyl}pyrrolidin-1-yl]-3-methyl-1-oxobutan-2-yl]-1,2-oxazol-3-yl}methyl)-N-methylcarbamate] were, in that order, 80 to 100% and under 0.6 µM. With `Cc1ncsc1-c1ccc([C@H](C)NC(=O)[C@@H]2C[C@@H](O)CN2C(=O)[C@@H](c2cc(N3CCN(C(=O)OC[C@H]4CC[C@]5(COc6nc(N7CC8CCC(C7)N8)c7cnc(-c8cccc9ccc(F)c(F)c89)c(F)c7n6)CCCN45)CC3)no2)C(C)C)cc1` (relative stereo) [Compound 63, [(3R,7aS)-7a-{[(4-{3,8-diazabicyclo[3.2.1]octan-3-yl}-7-(7,8-difluoronaphthalen-1-yl)-8-fluoropyrido[4,3-d]pyrimidin-2-yl)oxy]methyl}-hexahydro-1H-pyrrolizin-3-yl]methyl 4-{5-[(2R*)-1-[(2S,4R)-4-hydroxy-2-{[(1S)-1-[4-(4-methyl-1,3-thiazol-5-yl)phenyl]ethyl]carbamoyl}pyrrolidin-1-yl]-3-methyl-1-oxobutan-2-yl]-1,2-oxazol-3-yl}piperazine-1-carboxylate], the Dmax was 20 to 60% and the DC50 is under 0.6 µM. Consider `CCc1cccc2cc(O)cc(-c3ncc4c(N5CC6CCC(C5)N6)nc(OCCN5CCC(CC6CN(c7cc([C@H](C(=O)N8C[C@H](O)C[C@H]8C(=O)N[C@@H](C)c8ccc(-c9scnc9C)cc8)C(C)C)on7)C6)CC5)nc4c3F)c12` [Compound 81, (2S,4R)-1-[(2R)-2-(3-{3-[(1-{2-[(4-{3,8-diazabicyclo[3.2.1]octan-3-yl}-7-(8-ethyl-3-hydroxynaphthalen-1-yl)-8-fluoropyrido[4,3-d]pyrimidin-2-yl)oxy]ethyl}piperidin-4-yl)methyl]azetidin-1-yl}-1,2-oxazol-5-yl)-3-methylbutanoyl]-4-hydroxy-N-[(1S)-1-[4-(4-methyl-1,3-thiazol-5-yl)phenyl]ethyl]pyrrolidine-2-carboxamide], for which the Dmax was in the range of 80 to 100% and the DC50 is under 0.6 µM. On the same counts, the results for `CCc1cccc2cc(O)cc(-c3ncc4c(N5CC6CCC(C5)N6)nc(OCCN5CCC(CC6CN(c7cc([C@H](C(=O)N8C[C@H](O)C[C@H]8C(=O)N[C@@H](C)c8ccc(-c9ccnn9C)cc8)C(C)C)on7)C6)CC5)nc4c3F)c12` [Compound 212, (2S,4R)-1-[(2R)-2-(3-{3-[(1-{2-[(4-{3,8-diazabicyclo[3.2.1]octan-3-yl}-7-(8-ethyl-3-hydroxynaphthalen-1-yl)-8-fluoropyrido[4,3-d]pyrimidin-2-yl)oxy]ethyl}piperidin-4-yl)methyl]azetidin-1-yl}-1,2-oxazol-5-yl)-3-methylbutanoyl]-4-hydroxy-N-[(1S)-1-[4-(1-methyl-1H-pyrazol-5-yl)phenyl]ethyl]pyrrolidine-2-carboxamide] are 80 to 100% and under 0.6 µM. In turn, `CCc1cccc2cc(O)cc(-c3ncc4c(N5CC6CCC(C5)N6)nc(N5CCC(CN6CCC(CC7CN(c8cc([C@@H](C(=O)N9C[C@H](O)C[C@H]9C(=O)N[C@@H](C)c9ccc(-c%10scnc%10C)cc9)C(C)C)on8)C7)CC6)CC5)nc4c3F)c12` [Compound 193, (2S,4R)-1-[(2S)-2-(3-{3-[(1-{[1-(4-{3,8-diazabicyclo[3.2.1]octan-3-yl}-7-(8-ethyl-3-hydroxynaphthalen-1-yl)-8-fluoropyrido[4,3-d]pyrimidin-2-yl)piperidin-4-yl]methyl}piperidin-4-yl)methyl]azetidin-1-yl}-1,2-oxazol-5-yl)-3-methylbutanoyl]-4-hydroxy-N-[(1S)-1-[4-(4-methyl-1,3-thiazol-5-yl)phenyl]ethyl]pyrrolidine-2-carboxamide] displayed a DC50 of over 3 µM. Compound `CCc1cccc2cccc(-c3ncc4c(N5CC6CCC(C5)N6)nc(OC[C@@]56CCCN5[C@H](COc5cc([C@H](C(=O)N7C[C@H](O)C[C@H]7C(=O)N[C@@H](C)c7ccc(-c8scnc8C)cc7)C(C)C)on5)CC6)nc4c3F)c12` [Compound 54, (2S,4R)-1-[(2R)-2-(3-{[(3S,7aS)-7a-{[(4-{3,8-diazabicyclo[3.2.1]octan-3-yl}-7-(8-ethylnaphthalen-1-yl)-8-fluoropyrido[4,3-d]pyrimidin-2-yl)oxy]methyl}-hexahydro-1H-pyrrolizin-3-yl]methoxy}-1,2-oxazol-5-yl)-3-methylbutanoyl]-4-hydroxy-N-[(1S)-1-[4-(4-methyl-1,3-thiazol-5-yl)phenyl]ethyl]pyrrolidine-2-carboxamide] registered a Dmax of 80 to 100% and a DC50 of under 0.6 µM.

For the origin of these results see patent publication US20250206732A1, “COMPOUNDS AND METHODS FOR THE TARGETED DEGRADATION OF KRAS” (Arvinas Operations, Inc., priority 2022, published 2025).
